Paper PMC5317395, “Structure and inhibitor specificity of the PCTAIRE-family kinase CDK16” (Biochemical Journal, 2017)

Target: T1, CDK16 (Homo sapiens, UniProt Q00536, S319D)
T1 construct: kinase domain, CDK16 163–478, C-terminal His tag
Assay: biochemical
Design: Differential scanning fluorimetry (SYPRO Orange), 2 uM CDK16, Tm shift versus 2.5% DMSO control
Conditions: 12.5 µM; binder; Tm shift (°C)
Procedure: Thermal melting experiments were performed using a Real-Time PCR machine Mx3005p (Stratagene) as described previously. Briefly, 2 μM CDK16 was screened against a collection of kinase inhibitors in a 96-well plate format. […] Data were analysed with the MxPro software. […] To identify protein constructs suitable for structural studies, human CDK16 was recombinantly expressed in E. coli with a variety of N- and C-terminal truncations. […] To identify potential inhibitors of CDK16, we screened the recombinant protein kinase domain against many inhibitor libraries using differential scanning fluorimetry (DSF). Ligands in this assay increase a protein's melting temperature (Tm shift, ΔTm) by an amount proportional to their binding affinity. […] Rebastinib is a multitargeted type II kinase inhibitor that was developed to inhibit BCR-ABL as well as the drug-resistant gatekeeper mutant ABL^T315I (Figure 1). It has entered phase I clinical trials for chronic myeloid leukaemia.

T1 sequence (Q00536 163-478 S319D): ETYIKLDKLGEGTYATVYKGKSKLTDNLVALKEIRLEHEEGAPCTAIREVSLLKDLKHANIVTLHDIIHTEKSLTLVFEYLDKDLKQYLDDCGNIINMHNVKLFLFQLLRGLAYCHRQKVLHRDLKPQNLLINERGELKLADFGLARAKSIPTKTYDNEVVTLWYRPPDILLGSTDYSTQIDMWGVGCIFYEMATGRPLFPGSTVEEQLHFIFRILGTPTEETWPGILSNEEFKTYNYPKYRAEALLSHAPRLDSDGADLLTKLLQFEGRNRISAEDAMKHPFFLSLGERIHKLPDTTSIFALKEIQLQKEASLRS

Tm shift (°C) | SMILES
5.2 | CN1CCC(C(=O)Nc2n[nH]c3nc(-c4ccc(O)cc4)c(Br)cc23)CC1 [SB-732881]

Same assay, conditions: read-out: Tm shift (°C)

SMILES | ΔTm at 12.5 µM [°C]
CNC(=O)c1cc(Oc2ccc(NC(=O)Nc3cc(C(C)(C)C)nn3-c3ccc4ncccc4c3)c(F)c2)ccn1 [rebastinib] | 12.6
CCN1CCC(CC(=O)Nc2n[nH]c3nc(-c4cccs4)c(Br)cc23)CC1 [SB-739245-AC] | 5.4
CN1CCC(C(=O)Nc2n[nH]c3nc(-c4ccc(O)cc4)c(Br)cc23)CC1 [SB-732881-H] | 5.5
CCN(CC)Cc1ccc(Nc2nccc(-c3cnn4ncccc34)n2)cc1 [GW780056X] | 4.8
Nc1nc(Nc2ccc(S(N)(=O)=O)cc2)nn1C(=S)Nc1c(F)cccc1F [Cdk1/2 Inhibitor III] | 9.6
O=C1Nc2ccccc2/C1=C1/Nc2ccccc2/C1=N\OCCC(O)CO (stereo not drawn) [indirubin E804] | 7.6
Cc1nc(N)sc1-c1ccnc(Nc2cccc([N+](=O)[O-])c2)n1 [Cdk2/9 Inhibitor] | 7.2
O=Nc1c(-c2c(O)[nH]c3ccc(S(=O)(=O)O)cc23)[nH]c2ccccc12 [Indirubin-3′-monoxime-5-sulphonic acid] | 6.7
N#CCCc1ccc2c(c1)-c1[nH]c3ccc([N+](=O)[O-])cc3c1CC(=O)N2 [Alsterpaullone, 2-Cyanoethyl] | 7.9
O=C(O[C@H]1CN[C@H](C#Cc2cc3ncnc(Nc4ccc(Cc5ccccc5)cc4)c3s2)C1)N1CCOCC1 [GSK238583A] | 5.8
CC(C)(CO)CNC(=O)c1ccc2c(c1)/C(=N/Nc1ccc(S(N)(=O)=O)cc1)C(=O)N2 [GW301784X] | 6
CC(C)COC(=O)c1ccc2c(c1)/C(=C/Nc1ccc(S(N)(=O)=O)cc1)C(=O)N2 [GW416981X] | 8.7
O=Nc1c(-c2c(O)[nH]c3ccc(I)cc23)[nH]c2ccccc12 [5-Iodo-indirubin-3′-monoxime] | 6.1
CNC(=O)c1cc(Oc2ccc(NC(=O)Nc3ccc(Cl)c(C(F)(F)F)c3)c(F)c2)ccn1 [Regorafenib] | 4.1
O=C1Nc2ccccc2/C1=C\c1cnc[nH]1 [(Z,E)-3-(imidazol-4-ylmethylene)indolin-2-one] | 6.7
NS(=O)(=O)c1ccc(N/N=C2\C(=O)Nc3ccc(C(=O)NCCc4c[nH]cn4)cc32)cc1 [GW300660X] | 6.8
CNC(=O)c1nn(C)c2c1C(C)(C)Cc1cnc(Nc3ccc(N4CCN(C)CC4)cc3)nc1-2 [Milciclib] | 6.2
CC(C)(C)c1nc(-c2cccc(NS(=O)(=O)c3c(F)cccc3F)c2F)c(-c2ccnc(N)n2)s1 [dabrafenib] | 10.4
NS(=O)(=O)c1ccc(NN=C2C(=O)Nc3ccc(C(=O)NCc4ccncc4)cc32)cc1 [GW300657X] | 8.8

Other lines, results leading:

ΔTm at 12.5 µM [°C] | SMILES
4.7 | Cc1ccc([N+](=O)[O-])cc1S(=O)(=O)N(C)/N=C/c1cnc2ccc(Br)cn12 [PIK-75]
6 | COc1ccc2c(c1)/C(=C/c1cnc[nH]1)C(=O)N2 [SU9516]
5.8 | CC(C)Oc1cc(Nc2nc(N[C@@H](C)c3ccc(F)cn3)ncc2Cl)n[nH]1 [AZ23]
5.7 | O=C(Nc1c[nH]nc1-c1nc2ccc(CN3CCOCC3)cc2[nH]1)NC1CC1 [AT9283]

Target: T2, CDK16 (Homo sapiens, UniProt Q00536)
Assay: co-crystal structure ([…] Å); also DSF ΔTm […] °C, kinase assay IC50 (E. coli CDK16 + cyclin Y/[…]-3-3), CETSA
Format: biochemical
Design: PCTAIRE-tide substrate
Conditions: not given

T2 sequence (Q00536 whole entry): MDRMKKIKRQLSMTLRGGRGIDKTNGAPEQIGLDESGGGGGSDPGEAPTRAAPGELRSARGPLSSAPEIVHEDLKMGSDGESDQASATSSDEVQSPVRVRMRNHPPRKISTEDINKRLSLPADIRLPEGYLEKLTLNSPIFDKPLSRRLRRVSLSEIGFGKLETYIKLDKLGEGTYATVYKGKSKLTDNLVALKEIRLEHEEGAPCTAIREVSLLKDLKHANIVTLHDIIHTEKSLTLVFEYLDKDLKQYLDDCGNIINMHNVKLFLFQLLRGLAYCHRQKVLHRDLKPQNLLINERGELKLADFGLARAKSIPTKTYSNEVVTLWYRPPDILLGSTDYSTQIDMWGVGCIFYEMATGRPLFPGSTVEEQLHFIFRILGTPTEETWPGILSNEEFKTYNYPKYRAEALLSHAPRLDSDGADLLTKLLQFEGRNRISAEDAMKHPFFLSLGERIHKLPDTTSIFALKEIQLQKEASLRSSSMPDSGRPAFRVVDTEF
T2 sequence (Q8ND76 2-341 partner): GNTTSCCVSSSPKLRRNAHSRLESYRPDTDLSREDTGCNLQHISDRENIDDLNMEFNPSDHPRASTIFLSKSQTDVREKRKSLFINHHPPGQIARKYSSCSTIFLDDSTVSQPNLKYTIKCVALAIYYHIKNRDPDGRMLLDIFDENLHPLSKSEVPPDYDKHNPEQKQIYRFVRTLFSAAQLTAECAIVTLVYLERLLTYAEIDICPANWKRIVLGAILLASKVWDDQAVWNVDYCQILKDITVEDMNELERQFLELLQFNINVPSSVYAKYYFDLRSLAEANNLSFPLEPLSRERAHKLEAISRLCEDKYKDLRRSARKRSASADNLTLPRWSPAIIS

SMILES | IC50 [nM]
CNC(=O)c1cc(Oc2ccc(NC(=O)Nc3cc(C(C)(C)C)nn3-c3ccc4ncccc4c3)c(F)c2)ccn1 [rebastinib] | 32

Target: T2, CDK16
Assay: co-crystal structure ([…] Å); also DSF ΔTm […] °C, kinase assay IC50 (E. coli CDK16 + cyclin Y/[…]-3-3)
Format: biochemical
Design: PCTAIRE-tide substrate
Conditions: not given

SMILES | IC50 [nM]
O=C1Nc2ccccc2/C1=C1/Nc2ccccc2/C1=N\OCCC(O)CO (stereo not drawn) [indirubin E804] | 83

Target: T2, CDK16
Assay: […] kinase assay with PCTAIRE-tide; also DSF ΔTm […] °C
Format: biochemical
Design: E. coli-purified human CDK16 (kinase assay); 163–478 S319D in DSF; with cyclin Y (with endogenous 14-3-3)
Conditions: not given

SMILES | IC50 [nM]
CC(C)(C)c1nc(-c2cccc(NS(=O)(=O)c3c(F)cccc3F)c2F)c(-c2ccnc(N)n2)s1 [dabrafenib] | 35
